Data taken from article PMC8250858, “A Systematic Study of the Stability, Safety, and Efficacy of the de novo Designed Antimicrobial Peptide PepD2 and Its Modified Derivatives Against Acinetobacter baumannii” (Frontiers in Microbiology, 2021).
Where two headings read alike, the source gives them in different places.

Columns and labels:
HEK293 cells = format: cell-based, human
Experimental: Cell viability assays were performed by using the CellTiter 96® AQueous Non-Radioactive Cell Proliferation Assay (Promega, United States), in which 3-(4,5-dimethylthiazol-2-yl)-5-(3-carboxymethoxyphenyl)-2-(4-sulfophenyl)-2H-tetrazolium salt (MTS) can be reduced to purple-colored formazan by intact cells. […] The test peptide was dissolved in water and filtered through a 0.2-μm filter. The peptide concentration was quantitated by the UV280 to make a 5,120 μg/mL stock solution and then serially diluted in serum-free DMEM. On the second day, the medium was replaced with 100 μL of serum-free DMEM containing different peptide concentrations and incubated for 1 or 24 h. Serum-free DMEM without peptide was used as a negative control and medium containing 1% Triton X-100 was used as a positive control. One milligram of MTS powder was dissolved in 0.5 mL of Dulbecco’s phosphate-buffered saline (DPBS). The MTS solution was mixed with one-twentieth of a phenazine methosulfate (PMS) solution ([…]). To each well, 20 μL of the MTS/PMS solution was added. After 3 h, the absorbance was measured with an Infinite M1000 pro (Tecan Austria GmbH, Austria) at a wavelength of 490 nm. Cell viability was calculated using the following equation. Cellviability=[(A-Ap)/(An-Ap)]×100% A is the UV490 of the peptide-treated sample An is the UV490 of the sample without peptide (negative control) Ap is the UV490 of the Triton-treated sample (positive control)

[1] = test system: A. baumannii (ATCC 17978); format: cell-based, Acinetobacter baumannii; details: ex vivo rat blood, 4 μg/mL of each peptide
Experimental: The time-kill kinetics measurement against A. baumannii (ATCC 17978) in blood was conducted following a protocol modified from the literature ([Nagarajan et al., 2019]). […] Then, 4 μL of the peptide stock solution to be tested (2,035 μg/mL in water) was added to make the final bacterial cell number 10^7 CFU/mL and the final peptide concentration 4 μg/mL (assigned as tube A). At 2, 4, 6, 8, 10, 20, 30, 40, 50, and 60 min, 100 μL of the bacteria/blood mixture was removed from tube A and mixed with 100 μL of sterilized 2 M NaCl/50% glycerol (twofold dilution, assigned as tube B). […] Ten microliters of the mixture from tube B were mixed with 990 μL of sterilized 1 M NaCl (200-fold dilution, assigned as tube C). Ten microliters of the mixture from tube C was mixed with 90 μL of sterilized 1 M NaCl (2,000-fold dilution, assigned as tube D). Finally, ten or one hundred microliters of solution from each tube was plated on an MHA plate and incubated at 37°C overnight to count the colony number. To test whether freezing in liquid nitrogen kills part of the bacteria, pepdD2 was tested with and without freezing. […] At 0 and 60 min, the bacterial number was measured as described above. […] At the indicated time points, an aliquot of the sample was removed and diluted, and the remaining cell number was counted by plating on MHA plates. The data are expressed as the mean ± SD. […]

Ac-WKKIKKIIKKIKKI-NH2 [pepI2]
HEK293 IC50 (HEK293 cells; 1 h): 68.5 µg/mL | HEK293 IC50 (HEK293 cells; 24 h): 66.8 µg/mL | Killing rate compared [1]: killed bacteria faster than pepdD2
